Experimental data taken from ChEMBL document CHEMBL1151511, “Structure-based design of an inhibitor modeled at the substrate active site of aldose reductase” (Bioorg Med Chem Lett, 1997).

What was measured:
[1] = target: T1, Aldo-keto reductase family 1 member B1 (Bos taurus, UniProt P16116); assay: Inhibitory activity of compound against modified enzyme form of S-glutathionyl Aldose reductase
[2] = target: T1, Aldo-keto reductase family 1 member B1; assay: Tested for inhibition of bovine lens Aldose reductase (ALR2), expressed as IC50
[3] = target: T1, Aldo-keto reductase family 1 member B1; assay: Inhibitory activity of compound against modified enzyme form of S-glutathionyl Aldose reductase; Inactive

Compound	IC50 [1] [µM]	IC50 [2] [µM]	IC50 [3]
O=C(O)Cn1nc2c(c(Cc3nc4cc(C(F)(F)F)ccc4s3)c1=O)CCc1ccccc1-2	17	0.15	
O=C(O)Cn1nc2c(cc1=O)CCc1ccccc1-2		12	Not Active
